Experimental findings from PubChem BioAssay AID540264 (Southern Research Specialized Biocontainment Screening …, 2011) are described below.

Assay [1] is described as follows: RSV cytopathic effect inhibitors, dose response, cell-based, RSV Long, luminescence, synthesized compounds, set 11 (AID 540264). The following applies: HEp-2 RSV Long CPE inhibition, luminescence; at 200 µM (top of the series).
For assay [2], the system named is HEp-2 RSV Long CPE inhibition, luminescence. The assay is described as above.

Where “and” joins values, the source holds several entries; their conditions need not be identical. Equal values may be shown once. Calls of active or inactive are those of the source.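 How the source made its calls: active means CPE inhibition of 50% or more; inactive means the rest.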

Regarding `COCCCNC(=O)c1ccc(Cn2c(=O)c3cc(Cl)ccc3n(Cc3ccc(C)cc3)c2=O)cc1`, the CPE inhibition in assay [1] was 5.48% (inactive). In the case of `Cc1ccc(Cn2c(=O)n(Cc3ccc(C(=O)NC(C)(C)C)cc3)c(=O)c3ccccc32)cc1`, the IC50 (usually the concentration that inhibits the measured activity by half) in assay [2] was 1.8 µM. For `Cc1ccc(Cn2c(=O)n(Cc3ccc(C(=O)NCCCOC(C)C)cc3)c(=O)c3ccccc32)cc1`, the IC50 in assay [2] is 1.66 µM. `Cc1ccc(Cn2c(=O)n(Cc3ccc(C(=O)NCCCN(C)C)cc3)c(=O)c3ccccc32)cc1`: in assay [2], the half-maximal inhibitory concentration (IC50) is 9.29 µM. Regarding `COCCCNC(=O)c1ccc(Cn2c(=O)c3ccccc3n(Cc3ccc(F)cc3)c2=O)cc1`, in assay [2], the IC50 is 5 µM.

As for `Cc1ccc(C)c(NC(=O)[C@@H]2CCCN2S(=O)(=O)c2cccc3cccnc23)c1`, the IC50 in assay [2] is 1.5 µM and 1.7 µM. Regarding `Cc1ccc(Cn2c(=O)n(Cc3ccc(C(=O)Nc4ccncc4)cc3)c(=O)c3ccccc32)cc1`, the IC50 in assay [2] is 6.29 µM. Regarding `COCCCNC(=O)c1ccc(Cn2c(=O)c3ccccc3n(Cc3cccc(Br)c3)c2=O)cc1`, in assay [2], the IC50 is 2.15 µM. Turning to `COCCCNC(=O)c1ccc(Cn2c(=O)c3ccccc3n(Cc3ccccc3F)c2=O)cc1`, in assay [1], the CPE inhibition was 1.77% (inactive).

On to `CCOCCCNC(=O)c1ccc(Cn2c(=O)c3ccccc3n(Cc3ccc(C)cc3)c2=O)cc1`, for which the IC50 in assay [2] is 1.72 µM.

On to `COCCCNC(=O)c1ccc(Cn2c(=O)c3ccccc3n(Cc3ccccc3Br)c2=O)cc1`, for which the CPE inhibition in assay [1] was 0.32% (inactive).
